Experimental findings from US7652003B2, “Macrocyclic β-secretase inhibitors” (Schering-Plough Corporation, priority 2004, dated 2010) are described below.

This experiment addresses T1, sproBACE1 (soluble human BACE1) (Homo sapiens, UniProt P56817).
T1 construct: sBACE1, corresponding to amino acids 1-454; made in house; host or cells: Sf9 insect cells (baculovirus); purified from culture supernatant
Nature of the experiment: Peptide hydrolysis assay (HTRF, EuK-biotin labeled APPsw substrate). Type of experiment: biochemical. Conditions: 7 nM sproBACE1, pH 5.0, 3 hr at 30° C. An excerpt: A predicted soluble form of human BACE1 (sBACE1, corresponding to amino acids 1-454) was generated from the full length BACE1 cDNA (full length human BACE1 cDNA in pcDNA4/mycHisA construct; University of Toronto) by PCR using the advantage-GC cDNA PCR kit (Clontech, Palo Alto, Calif.). A HindIII/Pmel fragment from pcDNA4-sBACE1 myc/His was blunt ended using Klenow and subcloned into the Stu I site of pFASTBACI(A) (Invitrogen). A sBACE1 mycHis recombinant bacmid was generated by transposition in DH10Bac cells(GIBCO/BRL). Subsequently, the sBACE1 mycHis bacmid construct was transfected into sf9 cells using CellFectin (Invitrogen, San Diego, Calif.) in order to generate recombinant baculovirus. Sf9 cells were grown in SF 900-II medium (Invitrogen) supplemented with 3% heat inactivated FBS and 0.5× penicillin/streptomycin solution (Invitrogen). Five milliliters of high titer plaque purified sBACEmyc/His virus was used to infect 1 L of logarithmically growing sf9 cells for 72 hours. Intact cells were pelleted by centrifugation at 3000×g for 15 minutes. The supernatant, containing secreted sBACE1, was collected and diluted 50% v/v with 100 mM HEPES, pH 8.0. The diluted medium was loaded onto a Q-sepharose column. The Q-sepharose column was washed with Buffer A (20 mM HEPES, pH 8.0, 50 mM NaCl).
Proteins, were eluted from the Q-sepharose column with Buffer B (20 mM HEPES, pH 8.0, 500 mM NaCl). The protein peaks from the Q-sepharose column were pooled and loaded onto a Ni-NTA agarose column. The Ni-NTA column was then washed with Buffer C (20 mM HEPES, pH 8.0, 500 mM NaCl). Bound proteins were then eluted with Buffer D (Buffer C+250 mM imidazole). Peak protein fractions as determined by the Bradford Assay (Biorad, Calif.) were concentrated using a Centricon 30 concentrator (Millipore). sBACE1 purity was estimated to be ˜90% as assessed by SDS-PAGE and Commassie Blue staining.
The inhibitor, 25 nM EuK-biotin labeled APPsw substrate (EuK-KTEEISEVNLDAEFRHDKC-biotin; CIS-Bio International, France), 5 μM unlabeled APPsw peptide (KTEEISEVNLDAEFRHDK; American Peptide Company, Sunnyvale, Calif.), 7 nM sproBACE1, 20 mM PIPES pH 5.0, 0.1% Brij-35 (protein grade, Calbiochem, San Diego, Calif.), and 10% glycerol were preincubated for 30 min at 30° C. […] HTRF measurements were made on a Packard Discovery® HTRF plate reader using 337 nm laser light to excite the sample followed by a 50 μs delay and simultaneous measurements of both 620 nm and 665 nm emissions for 400 μs.
IC50 determinations for inhibitors, (I), were determined by measuring the percent change of the relative fluorescence at 665 nm divided by the relative fluorescence at 620 nm, (665/620 ratio), in the presence of varying concentrations of I and a fixed concentration of enzyme and substrate. […]
For orientation: Time-resolved FRET reads energy transfer from a long-lived donor to a nearby acceptor.

The mark [1] stands for this setting: read-out: Activity (IC50 classification).

Read-outs that look alike come from different tables or passages of the source.

T1 sequence (P56817 22-454): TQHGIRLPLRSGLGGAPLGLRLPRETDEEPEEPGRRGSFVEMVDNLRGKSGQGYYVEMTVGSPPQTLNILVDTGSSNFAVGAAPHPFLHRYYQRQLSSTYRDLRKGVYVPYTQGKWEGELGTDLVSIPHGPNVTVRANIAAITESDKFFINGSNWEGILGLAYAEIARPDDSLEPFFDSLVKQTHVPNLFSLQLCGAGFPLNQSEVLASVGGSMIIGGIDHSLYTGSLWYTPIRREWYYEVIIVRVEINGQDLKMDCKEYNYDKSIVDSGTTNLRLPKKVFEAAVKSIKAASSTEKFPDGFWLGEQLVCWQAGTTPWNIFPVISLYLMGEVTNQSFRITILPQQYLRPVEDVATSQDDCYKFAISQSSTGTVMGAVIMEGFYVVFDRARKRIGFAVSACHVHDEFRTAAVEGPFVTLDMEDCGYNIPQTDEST

As for `CCCN1CCCCOc2ccc(cc2)C[C@@H](C(O)C2NCCN(Cc3ccccc3)C2=O)NC(=O)c2cccc(c2)C1=O` (stereo partly shown), the IC50 (as a rule, the point on the concentration scale where inhibition reaches its midpoint) under setting [1] is 1000 to 10000 nM.
Turning to `CCCN1CCCCOc2cc(F)cc(c2)CC(C(O)C2NCCN(Cc3ccccc3)C2=O)NC(=O)c2cccc(c2)C1=O` (stereo not shown), the “Activity (IC50 classification)” value is on record as “A or B”.
For the molecule `O=C1N[C@H]([C@H](O)[C@@H]2NCCN(Cc3ccccc3)C2=O)Cc2cc(F)cc(c2)OCCCCN2CC1CC2=O` (stereo partly shown) [drawing 69], the IC50 (read-out: IC50) was 4 nM.
Take `O=C1N[C@H]([C@H](O)[C@@H]2NCCN(Cc3ccccc3)C2=O)Cc2cc(F)cc(c2)OCCCCN2CC1CC2=O` (stereo partly shown) [drawing 72]: under setting [1], the IC50 was 2 to 1000 nM.
